Measured values from the kinase profiling compilation of Christmann-Franck et al. (2016).

Legend:
Assay in all cases: radiometric filter-binding kinase assay, Kinase HotSpot
Conditions in all cases: compound 0.5 µM; ATP 10 µM
CAMKK1 (human) = CAMKK1 (human) (UniProt Q8N5S9)
CHUK (human) = CHUK (human) (UniProt O15111)
MAPK13 (human) = MAPK13 (human) (UniProt O15264)
CDK5 CDK5R1 p35 (human) = CDK5 CDK5R1 p35 (human) (UniProt Q00535+Q15078)
ITK (human) = ITK (human) (UniProt Q08881)
MAP3K14 (human) = MAP3K14 (human) (UniProt Q99558)
CDK2 CCNA2 (human) = CDK2 CCNA2 (human) (UniProt P24941+P20248)
PBK (human) = PBK (human) (UniProt Q96KB5)
HIPK1 (human) = HIPK1 (human) (UniProt Q86Z02)
SRPK2 (human) = SRPK2 (human) (UniProt P78362)
BTK (human) = BTK (human) (UniProt Q06187)
AKT2 (human) = AKT2 (human) (UniProt P31751)
PKN1 (human) = PKN1 (human) (UniProt Q16512)
SRPK3 (human) = SRPK3 (human) (UniProt Q9UPE1)
ADRBK1 (human) = ADRBK1 (human) (UniProt P25098)
NUAK2 (human) = NUAK2 (human) (UniProt Q9H093)
SYK (human) = SYK (human) (UniProt P43405)
PLK2 (human) = PLK2 (human) (UniProt Q9NYY3)
IRAK1 (human) = IRAK1 (human) (UniProt P51617)
NTRK1 (human) = NTRK1 (human) (UniProt P04629)
FLT1 (human) = FLT1 (human) (UniProt P17948)
GSG2 (human) = GSG2 (human) (UniProt Q8TF76)
CSNK1D (human) = CSNK1D (human) (UniProt P48730)
RAF1 (human) = RAF1 (human) (UniProt P04049)
MAP3K10 (human) = MAP3K10 (human) (UniProt Q02779)
ZAP70 (human) = ZAP70 (human) (UniProt P43403)
JAK2 JH1 JH2 (human) = JAK2 JH1 JH2 (human) (UniProt O60674)
MERTK (human) = MERTK (human) (UniProt Q12866)
HIPK4 (human) = HIPK4 (human) (UniProt Q8NE63)
CAMK2G (human) = CAMK2G (human) (UniProt Q13555)
FYN (human) = FYN (human) (UniProt P06241)
MAP4K4 (human) = MAP4K4 (human) (UniProt O95819)
CDK2 CCNE1 (human) = CDK2 CCNE1 (human) (UniProt P24941+P24864)
NEK2 (human) = NEK2 (human) (UniProt P51955)
STK4 (human) = STK4 (human) (UniProt Q13043)
MAP3K5 (human) = MAP3K5 (human) (UniProt Q99683)
[1] = molecular target: TYK2 JH1 catalytic (human) (UniProt P29597)
CDK4 CCND3 (human) = CDK4 CCND3 (human) (UniProt P30281+P11802)
TSSK2 (human) = TSSK2 (human) (UniProt Q96PF2)
GSK3B (human) = GSK3B (human) (UniProt P49841)
TSSK1B (human) = TSSK1B (human) (UniProt Q9BXA7)
AURKC (human) = AURKC (human) (UniProt Q9UQB9)

Chain of FLT1 (human) (P17948 whole entry, looked up): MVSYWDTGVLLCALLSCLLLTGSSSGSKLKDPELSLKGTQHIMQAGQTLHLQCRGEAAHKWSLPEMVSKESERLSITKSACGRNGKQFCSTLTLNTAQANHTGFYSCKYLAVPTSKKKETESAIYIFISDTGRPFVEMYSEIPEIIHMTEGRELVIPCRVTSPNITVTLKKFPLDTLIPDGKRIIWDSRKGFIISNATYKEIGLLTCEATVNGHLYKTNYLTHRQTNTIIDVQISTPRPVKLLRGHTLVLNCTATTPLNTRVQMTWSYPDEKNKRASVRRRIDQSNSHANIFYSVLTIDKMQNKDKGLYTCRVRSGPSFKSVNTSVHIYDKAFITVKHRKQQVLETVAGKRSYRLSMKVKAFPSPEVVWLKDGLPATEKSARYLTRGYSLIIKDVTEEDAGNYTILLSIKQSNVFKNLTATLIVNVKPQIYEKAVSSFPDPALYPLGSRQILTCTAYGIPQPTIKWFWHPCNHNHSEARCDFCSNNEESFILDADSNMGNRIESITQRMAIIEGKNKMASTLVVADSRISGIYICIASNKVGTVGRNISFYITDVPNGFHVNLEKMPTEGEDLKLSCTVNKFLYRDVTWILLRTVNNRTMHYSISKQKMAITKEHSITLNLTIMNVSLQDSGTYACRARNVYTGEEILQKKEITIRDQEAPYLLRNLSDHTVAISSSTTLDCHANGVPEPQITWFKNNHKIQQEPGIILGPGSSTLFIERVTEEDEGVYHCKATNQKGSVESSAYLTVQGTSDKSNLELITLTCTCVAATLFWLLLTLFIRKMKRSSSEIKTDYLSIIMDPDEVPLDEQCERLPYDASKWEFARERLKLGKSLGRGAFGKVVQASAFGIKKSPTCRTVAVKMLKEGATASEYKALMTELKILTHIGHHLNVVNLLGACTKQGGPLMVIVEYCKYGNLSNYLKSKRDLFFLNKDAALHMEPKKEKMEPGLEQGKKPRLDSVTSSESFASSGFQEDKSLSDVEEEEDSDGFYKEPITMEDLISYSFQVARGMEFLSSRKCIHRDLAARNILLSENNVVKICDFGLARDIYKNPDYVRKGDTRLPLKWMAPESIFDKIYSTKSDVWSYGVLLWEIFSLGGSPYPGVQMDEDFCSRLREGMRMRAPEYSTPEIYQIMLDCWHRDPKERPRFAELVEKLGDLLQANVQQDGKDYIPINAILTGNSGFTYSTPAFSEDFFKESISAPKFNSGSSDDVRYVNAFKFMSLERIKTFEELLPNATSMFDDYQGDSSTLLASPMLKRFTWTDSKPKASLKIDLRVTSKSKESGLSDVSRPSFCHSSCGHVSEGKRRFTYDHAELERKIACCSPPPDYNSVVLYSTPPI
Chain of NEK2 (human) (P51955 whole entry, looked up): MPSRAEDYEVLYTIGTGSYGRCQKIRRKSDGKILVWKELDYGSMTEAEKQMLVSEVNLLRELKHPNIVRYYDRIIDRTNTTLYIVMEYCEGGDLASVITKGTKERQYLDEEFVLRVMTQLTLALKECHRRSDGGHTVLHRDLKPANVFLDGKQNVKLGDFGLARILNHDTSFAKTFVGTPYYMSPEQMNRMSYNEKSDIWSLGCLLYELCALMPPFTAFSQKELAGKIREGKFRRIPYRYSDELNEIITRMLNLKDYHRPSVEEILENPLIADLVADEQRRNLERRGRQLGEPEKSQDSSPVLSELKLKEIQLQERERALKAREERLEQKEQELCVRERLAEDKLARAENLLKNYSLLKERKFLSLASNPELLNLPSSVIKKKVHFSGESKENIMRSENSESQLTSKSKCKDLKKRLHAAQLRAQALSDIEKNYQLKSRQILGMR
Chain of GSK3B (human) (P49841 whole entry, looked up): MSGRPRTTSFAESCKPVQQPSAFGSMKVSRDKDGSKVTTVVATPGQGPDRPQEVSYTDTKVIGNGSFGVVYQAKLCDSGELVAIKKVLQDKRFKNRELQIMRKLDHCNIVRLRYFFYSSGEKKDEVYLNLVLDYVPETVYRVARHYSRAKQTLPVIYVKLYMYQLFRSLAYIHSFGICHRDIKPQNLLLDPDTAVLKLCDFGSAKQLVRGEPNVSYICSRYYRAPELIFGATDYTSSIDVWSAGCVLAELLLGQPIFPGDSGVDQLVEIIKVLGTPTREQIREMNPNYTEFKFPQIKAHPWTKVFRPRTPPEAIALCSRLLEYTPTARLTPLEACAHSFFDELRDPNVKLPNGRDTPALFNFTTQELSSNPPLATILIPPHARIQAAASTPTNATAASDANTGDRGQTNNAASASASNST
Chain of MAP3K14 (human) (Q99558 whole entry, looked up): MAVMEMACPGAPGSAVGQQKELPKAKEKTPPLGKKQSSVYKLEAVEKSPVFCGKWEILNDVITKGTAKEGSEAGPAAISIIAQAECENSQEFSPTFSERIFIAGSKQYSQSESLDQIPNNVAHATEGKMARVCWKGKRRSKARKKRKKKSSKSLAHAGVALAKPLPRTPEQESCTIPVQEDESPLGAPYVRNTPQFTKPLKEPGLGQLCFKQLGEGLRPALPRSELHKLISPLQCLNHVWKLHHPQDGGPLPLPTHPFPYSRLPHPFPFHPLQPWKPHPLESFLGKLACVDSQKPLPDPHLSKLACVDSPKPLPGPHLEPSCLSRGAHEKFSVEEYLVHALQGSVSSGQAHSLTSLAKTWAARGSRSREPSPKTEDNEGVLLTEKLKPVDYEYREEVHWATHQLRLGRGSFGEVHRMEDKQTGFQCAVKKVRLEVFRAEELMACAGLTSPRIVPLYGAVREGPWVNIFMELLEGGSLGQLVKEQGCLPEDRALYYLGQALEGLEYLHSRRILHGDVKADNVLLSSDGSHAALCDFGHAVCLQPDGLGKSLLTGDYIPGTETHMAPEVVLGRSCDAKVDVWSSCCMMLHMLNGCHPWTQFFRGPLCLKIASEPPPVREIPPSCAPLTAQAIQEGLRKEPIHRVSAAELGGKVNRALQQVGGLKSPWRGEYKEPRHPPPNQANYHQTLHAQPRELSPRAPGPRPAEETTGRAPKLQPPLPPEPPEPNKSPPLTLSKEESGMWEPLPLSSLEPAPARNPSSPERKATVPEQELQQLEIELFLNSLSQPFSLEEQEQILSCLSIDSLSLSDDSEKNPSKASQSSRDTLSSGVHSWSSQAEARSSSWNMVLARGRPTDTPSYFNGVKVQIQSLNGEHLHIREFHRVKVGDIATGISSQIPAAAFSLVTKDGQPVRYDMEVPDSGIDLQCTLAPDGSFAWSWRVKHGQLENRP
Chain of HIPK1 (human) (Q86Z02 whole entry, looked up): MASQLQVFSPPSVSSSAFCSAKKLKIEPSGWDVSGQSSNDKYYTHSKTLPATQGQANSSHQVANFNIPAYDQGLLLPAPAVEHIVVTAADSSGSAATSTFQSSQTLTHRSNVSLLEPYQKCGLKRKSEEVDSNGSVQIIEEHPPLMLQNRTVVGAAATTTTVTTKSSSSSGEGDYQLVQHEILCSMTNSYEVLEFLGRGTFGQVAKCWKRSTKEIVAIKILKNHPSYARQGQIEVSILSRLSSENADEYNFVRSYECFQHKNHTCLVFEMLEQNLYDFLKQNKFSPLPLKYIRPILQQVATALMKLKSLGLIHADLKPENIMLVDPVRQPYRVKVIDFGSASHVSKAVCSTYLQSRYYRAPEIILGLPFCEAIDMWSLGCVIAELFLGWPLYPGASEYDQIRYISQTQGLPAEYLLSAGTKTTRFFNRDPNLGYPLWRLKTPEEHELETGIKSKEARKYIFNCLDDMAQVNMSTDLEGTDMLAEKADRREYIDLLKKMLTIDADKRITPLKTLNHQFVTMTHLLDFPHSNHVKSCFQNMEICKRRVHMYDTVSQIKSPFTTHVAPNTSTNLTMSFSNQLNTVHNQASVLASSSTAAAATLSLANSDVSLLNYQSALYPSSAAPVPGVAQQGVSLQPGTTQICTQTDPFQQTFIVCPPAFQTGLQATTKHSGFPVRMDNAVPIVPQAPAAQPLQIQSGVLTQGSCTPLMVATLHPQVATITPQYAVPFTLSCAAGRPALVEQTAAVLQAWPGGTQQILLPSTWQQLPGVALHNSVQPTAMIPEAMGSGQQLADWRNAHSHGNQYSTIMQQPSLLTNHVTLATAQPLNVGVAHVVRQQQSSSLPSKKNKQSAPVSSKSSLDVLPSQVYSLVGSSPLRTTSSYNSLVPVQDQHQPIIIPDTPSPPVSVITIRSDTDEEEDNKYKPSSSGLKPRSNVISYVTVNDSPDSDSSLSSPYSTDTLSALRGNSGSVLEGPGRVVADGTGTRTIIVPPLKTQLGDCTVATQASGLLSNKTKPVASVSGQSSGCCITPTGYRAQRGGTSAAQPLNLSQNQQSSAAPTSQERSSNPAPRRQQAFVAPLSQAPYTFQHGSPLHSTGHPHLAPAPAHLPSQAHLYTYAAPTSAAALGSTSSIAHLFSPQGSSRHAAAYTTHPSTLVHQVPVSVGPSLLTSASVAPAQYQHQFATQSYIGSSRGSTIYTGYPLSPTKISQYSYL
Chain of CDK4 CCND3 (human) (P11802 whole entry, looked up): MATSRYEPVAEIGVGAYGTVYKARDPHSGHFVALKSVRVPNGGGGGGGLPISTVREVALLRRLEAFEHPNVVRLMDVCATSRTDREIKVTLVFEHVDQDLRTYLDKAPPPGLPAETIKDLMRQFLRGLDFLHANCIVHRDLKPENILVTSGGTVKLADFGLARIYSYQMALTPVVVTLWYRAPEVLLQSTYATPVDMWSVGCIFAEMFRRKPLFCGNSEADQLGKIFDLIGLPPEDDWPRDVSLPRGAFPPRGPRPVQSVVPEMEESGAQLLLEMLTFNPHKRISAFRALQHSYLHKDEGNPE
Chain of CDK4 CCND3 (human) (P30281 whole entry, looked up): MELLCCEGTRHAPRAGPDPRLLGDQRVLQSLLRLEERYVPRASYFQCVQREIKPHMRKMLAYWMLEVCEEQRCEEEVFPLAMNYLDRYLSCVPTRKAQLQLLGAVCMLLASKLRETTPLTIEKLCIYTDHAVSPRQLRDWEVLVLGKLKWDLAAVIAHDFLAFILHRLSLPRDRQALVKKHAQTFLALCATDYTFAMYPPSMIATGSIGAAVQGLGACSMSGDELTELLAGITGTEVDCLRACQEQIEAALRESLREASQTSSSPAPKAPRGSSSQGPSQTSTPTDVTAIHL

`CCn1cnc2c(Nc3cccc(Cl)c3)nc(N[C@@H]3CCCC[C@@H]3N)nc21` showed a residual activity (CAMKK1 (human)) of 107%, a residual activity (CHUK (human)) of 91.7% and a residual activity (MAPK13 (human)) of 102%. For the same compound, the residual activity (CDK5 CDK5R1 p35 (human)) was 13.2%, the residual activity (ITK (human)) was 105% and the residual activity (MAP3K14 (human)) was 85.1%. For the same compound, the residual activity (CDK2 CCNA2 (human)) was 23.6%, the residual activity (PBK (human)) was 105% and the residual activity (HIPK1 (human)) was 97.5%. The residual activity (SRPK2 (human)) was 80.7%, the residual activity (BTK (human)) was 82.5% and the residual activity (AKT2 (human)) was 108%. The residual activity (PKN1 (human)) was 69.9%, the residual activity (SRPK3 (human)) was 94.9% and the residual activity (ADRBK1 (human)) was 96.5%. For the same compound, the residual activity (NUAK2 (human)) was 93.7%, the residual activity (SYK (human)) was 98.4% and the residual activity (PLK2 (human)) was 95.8%. It also gave a residual activity (IRAK1 (human)) of 81.7%, a residual activity (NTRK1 (human)) of 92.9% and a residual activity (FLT1 (human)) of 92.8%. For the same compound, the residual activity (GSG2 (human)) was 90.4%, the residual activity (CSNK1D (human)) was 97.8% and the residual activity (RAF1 (human)) was 92.8%. It also gave a residual activity (MAP3K10 (human)) of 92.9%, a residual activity (ZAP70 (human)) of 106% and a residual activity (JAK2 JH1 JH2 (human)) of 104%. It also gave a residual activity (MERTK (human)) of 76.2%, a residual activity (HIPK4 (human)) of 88.4% and a residual activity (CAMK2G (human)) of 104%. For the same compound, the residual activity (FYN (human)) was 48.6%, the residual activity (MAP4K4 (human)) was 72.5% and the residual activity (CDK2 CCNE1 (human)) was 16.8%. The residual activity (NEK2 (human)) was 100%, the residual activity (STK4 (human)) was 91.3% and the residual activity (MAP3K5 (human)) was 103%. It also gave a residual activity [1] of 110%, a residual activity (CDK4 CCND3 (human)) of 71.5% and a residual activity (TSSK2 (human)) of 109%. It also gave a residual activity (GSK3B (human)) of 104%, a residual activity (TSSK1B (human)) of 87.4% and a residual activity (AURKC (human)) of 94.5%.
`O=C1Nc2ccccc2/C1=C1\Nc2ccccc2\C1=N/O` showed a residual activity (CAMKK1 (human)) of 53.6%, a residual activity (CHUK (human)) of 97.6% and a residual activity (MAPK13 (human)) of 105%. It also gave a residual activity (CDK5 CDK5R1 p35 (human)) of 23.8%, a residual activity (ITK (human)) of 53% and a residual activity (MAP3K14 (human)) of 88.7%. The residual activity (CDK2 CCNA2 (human)) was 29.6%, the residual activity (PBK (human)) was 89.5% and the residual activity (HIPK1 (human)) was 98.9%. For the same compound, the residual activity (SRPK2 (human)) was 91.3%, the residual activity (BTK (human)) was 59.3% and the residual activity (AKT2 (human)) was 92%. It also gave a residual activity (PKN1 (human)) of 87.5%, a residual activity (SRPK3 (human)) of 97.5% and a residual activity (ADRBK1 (human)) of 89.5%. For the same compound, the residual activity (NUAK2 (human)) was 72.5%, the residual activity (SYK (human)) was 58.5% and the residual activity (PLK2 (human)) was 106%. For the same compound, the residual activity (IRAK1 (human)) was 68.8%, the residual activity (NTRK1 (human)) was 12.4% and the residual activity (FLT1 (human)) was 73.6%. It also gave a residual activity (GSG2 (human)) of 65.6%, a residual activity (CSNK1D (human)) of 39.3% and a residual activity (RAF1 (human)) of 99.3%. The residual activity (MAP3K10 (human)) was 95.2%, the residual activity (ZAP70 (human)) was 95.6% and the residual activity (JAK2 JH1 JH2 (human)) was 84.6%. It also gave a residual activity (MERTK (human)) of 82.2%, a residual activity (HIPK4 (human)) of 102% and a residual activity (CAMK2G (human)) of 69.8%. The residual activity (FYN (human)) was 43.3%, the residual activity (MAP4K4 (human)) was 42% and the residual activity (CDK2 CCNE1 (human)) was 31.3%. For the same compound, the residual activity (NEK2 (human)) was 109%, the residual activity (STK4 (human)) was 18.8% and the residual activity (MAP3K5 (human)) was 84.3%. It also gave a residual activity [1] of 24.3%, a residual activity (CDK4 CCND3 (human)) of 98.9% and a residual activity (TSSK2 (human)) of 97.7%. The residual activity (GSK3B (human)) was 27.3%, the residual activity (TSSK1B (human)) was 86% and the residual activity (AURKC (human)) was 56.4%.
`O=C(CCCc1ccc(-c2ccccc2F)cc1)Nc1ccc(O)cc1` showed a residual activity (CHUK (human)) of 97.3%, a residual activity (MAPK13 (human)) of 103% and a residual activity (CDK5 CDK5R1 p35 (human)) of 92.5%. It also gave a residual activity (ITK (human)) of 85%, a residual activity (MAP3K14 (human)) of 99.2% and a residual activity (CDK2 CCNA2 (human)) of 92.7%. For the same compound, the residual activity (PBK (human)) was 90.8%, the residual activity (HIPK1 (human)) was 105% and the residual activity (SRPK2 (human)) was 94.3%. The residual activity (BTK (human)) was 98.2%, the residual activity (AKT2 (human)) was 101% and the residual activity (PKN1 (human)) was 105%. It also gave a residual activity (SRPK3 (human)) of 93.7%, a residual activity (ADRBK1 (human)) of 105% and a residual activity (NUAK2 (human)) of 92.9%. It also gave a residual activity (SYK (human)) of 101%, a residual activity (PLK2 (human)) of 102% and a residual activity (IRAK1 (human)) of 100%. For the same compound, the residual activity (NTRK1 (human)) was 103%, the residual activity (FLT1 (human)) was 93.1% and the residual activity (GSG2 (human)) was 94.7%. It also gave a residual activity (CSNK1D (human)) of 102%, a residual activity (RAF1 (human)) of 102% and a residual activity (MAP3K10 (human)) of 88.8%. The residual activity (ZAP70 (human)) was 99.7%, the residual activity (JAK2 JH1 JH2 (human)) was 98.5% and the residual activity (MERTK (human)) was 98.8%. It also gave a residual activity (HIPK4 (human)) of 105%, a residual activity (CAMK2G (human)) of 109% and a residual activity (FYN (human)) of 94.7%. The residual activity (MAP4K4 (human)) was 92.9%, the residual activity (CDK2 CCNE1 (human)) was 91.9% and the residual activity (NEK2 (human)) was 90.6%. The residual activity (STK4 (human)) was 95%, the residual activity (MAP3K5 (human)) was 94.3% and the residual activity [1] was 96.5%. The residual activity (CDK4 CCND3 (human)) was 110%, the residual activity (TSSK2 (human)) was 115% and the residual activity (GSK3B (human)) was 99.4%. It also gave a residual activity (TSSK1B (human)) of 107% and a residual activity (AURKC (human)) of 95.4%.
Work on `CC(C)[C@H](CO)Nc1nc(Nc2cc(N)cc(Cl)c2)c2ncn(C(C)C)c2n1` yielded a residual activity (CAMKK1 (human)) of 86.8%, a residual activity (CHUK (human)) of 97.3% and a residual activity (MAPK13 (human)) of 101%. It also gave a residual activity (CDK5 CDK5R1 p35 (human)) of 0.133%, a residual activity (ITK (human)) of 80.2% and a residual activity (MAP3K14 (human)) of 100%. It also gave a residual activity (PBK (human)) of 75.6%, a residual activity (HIPK1 (human)) of 99.2% and a residual activity (SRPK2 (human)) of 31%. It also gave a residual activity (BTK (human)) of 33%, a residual activity (AKT2 (human)) of 100% and a residual activity (PKN1 (human)) of 93.3%. The residual activity (SRPK3 (human)) was 37.7%, the residual activity (ADRBK1 (human)) was 83% and the residual activity (NUAK2 (human)) was 81.4%. It also gave a residual activity (SYK (human)) of 81.1%, a residual activity (PLK2 (human)) of 92% and a residual activity (IRAK1 (human)) of 97.1%. It also gave a residual activity (NTRK1 (human)) of 45.4%, a residual activity (FLT1 (human)) of 97.5% and a residual activity (GSG2 (human)) of 99.9%. The residual activity (CSNK1D (human)) was 65.7%, the residual activity (RAF1 (human)) was 113% and the residual activity (MAP3K10 (human)) was 95.1%. It also gave a residual activity (ZAP70 (human)) of 102%, a residual activity (JAK2 JH1 JH2 (human)) of 100% and a residual activity (MERTK (human)) of 79.7%. It also gave a residual activity (HIPK4 (human)) of 96.4%, a residual activity (CAMK2G (human)) of 104% and a residual activity (FYN (human)) of 18.9%. It also gave a residual activity (MAP4K4 (human)) of 86.1%, a residual activity (NEK2 (human)) of 94.4% and a residual activity (STK4 (human)) of 63.6%. For the same compound, the residual activity (MAP3K5 (human)) was 95.6%, the residual activity [1] was 57.9% and the residual activity (TSSK2 (human)) was 102%. For the same compound, the residual activity (GSK3B (human)) was 103%, the residual activity (TSSK1B (human)) was 91.3% and the residual activity (AURKC (human)) was 91.9%.
